From patent US20090221567A1, “MUSCARINIC RECEPTOR AGONISTS, COMPOSITIONS, METHODS OF TREATMENT THEREOF, AND PROCESSES FOR PREPARATION THEREOF 177” (ASTRAZENECA AB, priority 2008, published 2009)

How the values were obtained:
[1] = target: T1, hM1 (human Muscarinic receptor subtype 1) (Homo sapiens, UniProt P11229); assay: Human M1 calcium mobilization FLIPR assay; type: cell-based; conditions: receptor expressed in CHO cells, intracellular Ca2+ release; read-out: hM1 EC50
T1 construct: expressed in transfected cells; host or cells: CHO cells (Chinese hamster ovary cells, ATCC)
T1 sequence (P11229 1-460): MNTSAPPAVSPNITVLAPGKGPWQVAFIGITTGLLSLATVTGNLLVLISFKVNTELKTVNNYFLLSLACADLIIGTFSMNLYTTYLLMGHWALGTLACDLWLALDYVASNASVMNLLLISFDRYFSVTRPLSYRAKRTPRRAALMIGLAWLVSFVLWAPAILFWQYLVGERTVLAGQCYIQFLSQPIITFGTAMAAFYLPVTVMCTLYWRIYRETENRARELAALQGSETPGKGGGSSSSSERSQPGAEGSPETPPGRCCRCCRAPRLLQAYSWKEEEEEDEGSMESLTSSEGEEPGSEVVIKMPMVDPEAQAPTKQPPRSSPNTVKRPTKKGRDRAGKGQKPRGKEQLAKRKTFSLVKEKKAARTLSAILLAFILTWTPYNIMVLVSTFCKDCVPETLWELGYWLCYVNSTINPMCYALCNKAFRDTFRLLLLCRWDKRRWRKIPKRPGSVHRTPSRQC
Protocol: (§1) The compound activity in the present invention (EC50 or IC50) is measured using a 384 plate-based imaging assay that monitors drug induced intracellular Ca^2+ release in whole cells. Activation of hM1 (human Muscarinic receptor subtype 1, gene bank access NM_000738), rM1 (rat Muscarinic receptor subtype 1, gene bank access NM_080773), hM3 (human Muscarinic receptor subtype 3, gene bank access NM_000740NM_000740) and hM5 (human Muscarinic receptor subtype 5, gene bank access NM_0121258), receptors expressed in CHO cells (Chinese hamster ovary cells, ATCC) is quantified in a Molecular Devices FLIPR IITM instrument as an increase in fluorescent signal. Inhibition of hM3 and hM5 by compounds is determined by the decrease in fluorescent signal in response to 2 nM acetylcholine activation.
(§2) Prior to experiment, the cell culture medium is removed from the plates by inversion. […] Plates are incubated at 37° C. for 60 minutes prior to start the experiment. The incubation is terminated by washing the cells four times in assay buffer, leaving a residual 25 μl buffer per well. Cell plates are then transferred to the FLIPR, ready for compound additions.
(§3) The day of experiment, acetylcholine and compounds are diluted in assay buffer in three-fold concentration range (10 points serial dilution) for addition by FLIPR instrument. For all calcium assays, a baseline reading is taken for 10 seconds followed by the addition of 12.5 μl of compounds, resulting in a total well volume of 37.5 μl. Data is collected every second for 60 pictures and then every 6 seconds for 20 pictures prior to the addition of agonist. For hM3 and hM5, before agonist addition, a second baseline reading is taken for 10 seconds followed by the addition of 12.5 μl of agonist or buffer, producing a final volume of 50 μl. After agonist stimulation, the FLIPR continues to collect data every second for 60 pictures and then every 6 seconds for 20 pictures. The fluorescence emission is read using filter 1 (emission 510-570 nm) by the FLIPR on board CCD camera.
(§4) Calcium mobilization output data are calculated as the maximal relative fluorescence unit (RFU) minus the minimal value for both compound and agonist reading frame (except for hM1 and rM1 using only the maximal RFU). Data are analyzed using sigmoidal fits of a non-linear curve-fitting program (XLfit version 4.2.2 Excel add-in version 4.2.2 build 18 math 1Q version 2.1.2 build 18). All pEC50 and pIC50 values are reported as arithmetic means±standard error of mean of ‘n’ independent experiments.

[2] = target: T2, human M2 receptor (human Muscarinic receptor subtype 2) (Homo sapiens, UniProt P08172); assay: hM2 receptor GTPγS binding; type: biochemical; conditions: CHO membranes, [35S]GTPγS binding
T2 construct: purchased Perkin-Elmer RBHM2M; host or cells: membranes from CHO cells expressing the cloned receptor
T2 sequence (P08172 1-466): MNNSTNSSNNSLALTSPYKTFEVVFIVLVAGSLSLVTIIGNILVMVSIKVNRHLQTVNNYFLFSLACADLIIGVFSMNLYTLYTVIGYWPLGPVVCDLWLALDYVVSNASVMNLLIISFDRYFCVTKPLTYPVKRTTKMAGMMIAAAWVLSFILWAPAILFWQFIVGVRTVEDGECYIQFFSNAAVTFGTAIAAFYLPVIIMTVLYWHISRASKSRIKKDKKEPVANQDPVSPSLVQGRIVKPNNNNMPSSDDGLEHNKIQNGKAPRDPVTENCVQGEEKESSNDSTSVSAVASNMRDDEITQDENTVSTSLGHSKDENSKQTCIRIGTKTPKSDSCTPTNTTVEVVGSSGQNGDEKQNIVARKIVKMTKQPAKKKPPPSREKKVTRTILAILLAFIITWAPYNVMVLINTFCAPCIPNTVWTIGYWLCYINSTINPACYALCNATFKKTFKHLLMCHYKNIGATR
Protocol: Membranes produced from Chinese hamster ovary cells (CHO) expressing the cloned human M2 receptor (human Muscarinic receptor subtype 2, gene bank access NM_000739), are obtained from Perkin-Elmer (RBHM2M). The membranes are thawed at 37° C., passed 3 times through a 23-gauge blunt-end needle, diluted in the GTPγS binding buffer (50 mM Hepes, 20 mM NaOH, 100 mM NaCl, 1 mM EDTA, 5 mM MgCl2, pH 7.4, 100 μM DTT). The EC50, IC50 and Emax of the compounds of the invention are evaluated from 10-point dose-response curves (three fold concentration range) done in 60 μl in 384-well non-specific binding surface plate (Corning). Ten microliters from the dose-response curves plate (5× concentration) are transferred to another 384 well plate containing 25 μl of the following: 5 μg of hM2 membranes, 500 μg of Flashblue beads (Perkin-Elmer) and GDP 25 μM. An additional 15 μl containing 3.3× (60,000 dpm) of GTPγ^35S (0.4 nM final) are added to the wells resulting in a total well volume of 50 μl. Basal and maximal stimulated [^35S]GTPγS binding are determined in absence and presence of 30 μM final of acetylcholine agonist. The membranes/beads mix are pre-incubated for 15 minutes at room temperature with 25 μM GDP prior to distribution in plates (12.5 μM final). The reversal of acetylcholine-induced stimulation (2 μM final) of [^35S]GTPγS binding is used to assay the antagonist properties (IC50) of the compounds. The plates are incubated for 60 minutes at room temperature then centrifuged at 400 rpm for 5 minutes. The radioactivity (cpm) is counted in a Trilux (Perkin-Elmer).
Values of EC50, IC50 and Emax are obtained using sigmoidal fits of a non-linear curve-fitting program (XLfit version 4.2.2 Excel add-in version 4.2.2 build 18 math 1Q version 2.1.2 build 18) of percent stimulated [^35S]GTPγS binding vs. log(molar ligand). All pEC50 and pIC50 values are reported as arithmetic means±standard error of mean of ‘n’ independent experiments.

[3] = target: T3, hM3 (human Muscarinic receptor subtype 3) (Homo sapiens, UniProt P20309); assay: Human M3 calcium mobilization FLIPR assay; type: cell-based; conditions: receptor expressed in CHO cells, intracellular Ca2+ release
T3 construct: expressed in transfected cells; host or cells: CHO cells (Chinese hamster ovary cells, ATCC)
Protocol: as §1, §2, §3, §4

T3 sequence (P20309 whole entry): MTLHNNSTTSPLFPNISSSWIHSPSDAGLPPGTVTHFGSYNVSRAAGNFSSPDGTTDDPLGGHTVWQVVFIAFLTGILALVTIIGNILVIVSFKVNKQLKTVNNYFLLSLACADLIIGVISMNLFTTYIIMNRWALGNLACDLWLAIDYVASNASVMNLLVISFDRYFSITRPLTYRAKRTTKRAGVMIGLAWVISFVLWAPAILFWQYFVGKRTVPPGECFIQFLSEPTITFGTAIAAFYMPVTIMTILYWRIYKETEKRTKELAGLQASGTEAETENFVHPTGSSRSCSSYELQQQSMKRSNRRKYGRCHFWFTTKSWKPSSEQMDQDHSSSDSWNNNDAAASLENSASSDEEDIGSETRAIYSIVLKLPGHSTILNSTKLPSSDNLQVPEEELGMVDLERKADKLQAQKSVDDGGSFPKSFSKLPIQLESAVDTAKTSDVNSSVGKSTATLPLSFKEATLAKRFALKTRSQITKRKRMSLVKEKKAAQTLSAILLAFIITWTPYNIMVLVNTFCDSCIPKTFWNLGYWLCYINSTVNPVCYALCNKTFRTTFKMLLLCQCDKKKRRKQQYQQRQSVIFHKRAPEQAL

Row | EC50 [1] | EC50 [2] | EC50 [3] | SMILES
1 | 23 nM | 3700 nM | > 40000 nM | CCOC(=O)N1CCC(C)(N2CCC(N3C(=O)CO[C@H]4CCCC[C@@H]43)CC2)C1 (single isomer, unassigned) [Example 18]
2 | 170 nM | > 30000 nM | > 40000 nM | Cc1ccccc1C(=O)N1CCC(N2CCC(N3C(=O)CO[C@H]4CCCC[C@@H]43)CC2)CC1 [Example 11, (1S,6S)-10-[1-[1-(2-methylbenzoyl)-4-piperidyl]-4-piperidyl]-7-oxa-10-azabicyclo[4.4.0]decan-9-one]
3 | 340 nM | > 30000 nM | > 40000 nM | Cn1cccc1C(=O)N1CCC(N2CCC(N3C(=O)CO[C@H]4CCCC[C@@H]43)CC2)CC1 [Example 12, (1S,6S)-10-[1-[1-(1-methylpyrrole-2-carbonyl)-4-piperidyl]-4-piperidyl]-7-oxa-10-azabicyclo[4.4.0]decan-9-one]
4 | 130 nM | > 30000 nM | > 40000 nM | CC(C)OC(=O)N1CCC(N2CCC(N3C(=O)CO[C@@H]4CCCC[C@H]43)CC2)CC1 [Example 14, Propan-2-yl 4-[4-[(1R,6R)-9-oxo-7-oxa-10-azabicyclo[4.4.0]dec-10yl]-1-piperidyl]piperidine-1-carboxylate]
5 | 83 nM | > 12000 nM | > 40000 nM | CCOC(=O)N1CCC(N2CCC(N3C(=O)OC[C@H]4CCCC[C@@H]43)CC2)CC1 [Example 15, Ethyl 4-[4-[(1S,6S)-9-oxo-8-oxa-10-azabicyclo[4.4.0]dec-10-yl]-1-piperidyl]piperidine-1-carboxylate]

Second part, the compound before the results:

Row | SMILES | EC50 [1] | EC50 [2] | EC50 [3]
6 | CCOC(=O)N1CCC(C)(N2CCC(N3C(=O)CO[C@H]4CCCC[C@@H]43)CC2)C1 (single isomer, unassigned) [Example 19] | 46 nM | > 40000 nM | > 40000 nM
7 | CCOC(=O)N1CCC(N2CCC(N3C(=O)NC[C@H]4CCCC[C@@H]43)CC2)CC1 [Example 1, Ethyl 4-[4-[(4aR,8aS)-2-oxo-3,4,4a,5,6,7,8,8a-octahydroquinazolin-1-y]-1-piperidyl]piperidine-1-carboxylate] | 1.6 nM | 380 nM | 
8 | CC(C)OC(=O)N1CCC(N2CCC(N3C(=O)NC[C@H]4CCCC[C@@H]43)CC2)CC1 [Example 2, Propan-2-yl 4-[4-[(4aR,8aS)-2-oxo-3,4,4a,5,6,7,8,8a-octahydroquinazolin-1-yl]-1-piperidyl]piperidine-1-carboxylate] | 5.3 nM | > 1200 nM | > 49000 nM
9 | O=C(C1CC1)N1CCC(N2CCC(N3C(=O)NC[C@H]4CCCC[C@@H]43)CC2)CC1 [Example 3, (4aR,8aS)-1-[1-[1-(cyclopropanecarbonyl)-4-piperidyl]-4-piperidyl]-3,4,4a,5,6,7,8,8a-octahydroquinazolin-2-one] | 13 nM | > 12000 nM | > 49000 nM
10 | Cc1ccccc1C(=O)N1CCC(N2CCC(N3C(=O)NC[C@H]4CCCC[C@@H]43)CC2)CC1 [Example 4, (4aR,8aS)-1-[1-[1-(2-methylbenzoyl)-4-piperidyl]-4-piperidyl]-3,4,4a,5,6,7,8,8a-octahydroquinazolin-2-one] | 25 nM | > 30000 nM | > 49000 nM
11 | CC(C)OC(=O)N1CCC(N2CCC(N3C(=O)N(C)C[C@H]4CCCC[C@@H]43)CC2)CC1 [Example 6, Propan-2-yl 4-[4-[(4aR,8aS)-3-methyl-2-oxo-4a,5,6,7,8,8a-hexahydro-4H-quinazolin-1-yl]-1-piperidyl]piperidine-1-carboxylate] | 94 nM | > 30000 nM | > 40000 nM
12 | CCOC(=O)N1CCC(C)(N2CCC(N3C(=O)NC[C@H]4CCCC[C@@H]43)CC2)CC1 [Example 7, Ethyl 4-[4-[(4aR,8aS)-2-oxo-3,4,4a,5,6,7,8,8a-octahydroquinazolin-1-yl]-1-piperidyl]-4-methyl-piperidine-1-carboxylate] | 4.5 nM | 70 nM | 690 nM
13 | CC(C)OC(=O)N1CCC(C)(N2CCC(N3C(=O)NC[C@H]4CCCC[C@@H]43)CC2)CC1 [Example 8, Propan-2-yl 4-[4-[(4aR,8aS)-2-oxo-3,4,4a,5,6,7,8,8a-octahydroquinazolin-1-yl]-1-piperidyl]-4-methyl-piperidine-1-carboxylate] | < 11 nM | > 30000 nM | > 40000 nM
14 | CCOC(=O)N1CCC(N2CCC(N3C(=O)CO[C@H]4CCCC[C@@H]43)CC2)CC1 [Example 9, Ethyl 4-[4-[(1S,6S)-9-oxo-7-oxa-10-azabicyclo[4.4.0]dec-10-yl]-1-piperidyl]piperidine-1-carboxylate] | 17 nM | 2500 nM | > 40000 nM
15 | CC(C)OC(=O)N1CCC(N2CCC(N3C(=O)CO[C@H]4CCCC[C@@H]43)CC2)CC1 [Example 10, Propan-2-yl 4-[4-[(1S,6S)-9-oxo-7-oxa-10-azabicyclo[4.4.0]dec-10-yl]-1-piperidyl]piperidine-1-carboxylate] | 22 nM | > 6600 nM | > 40000 nM
16 | CCOC(=O)N1CC[C@H](N2CCC(N3C(=O)CO[C@H]4CCCC[C@@H]43)CC2)C1 [Example 13, Ethyl (3S)-3-[4-[(1S,6S)-9-oxo-7-oxa-10-azabicyclo[4.4.0]dec-10-yl]-1-piperidyl]pyrrolidine-1-carboxylate] | 200 nM | > 30000 nM | > 40000 nM
